Entries after “also recorded” stand apart in the source; their conditions may differ.
Legend:
[1] = tested on: fibromyalgia; details: cited from earlier work
[2] = tested on: patients with fibromyalgia and insulin resistance; test: Retrospective review of Numeric Pain Rating Scale (NPRS) pain scores before and after treatment; assay type: in vivo, human
Experimental: Data was obtained from the review of various patient populations as followed: First, the pain scores of two populations of patients were reviewed. Group 1 consisted of 16 patients with fibromyalgia and insulin resistance (HbA1c values of 5.7 or higher) who were prescribed metformin 500 mg twice a day for insulin resistance. In this group, metformin had been added to the “standard treatment” for fibromyalgia. The “standard treatment” (ST) consisted of norepinephrine reuptake inhibitors (amitriptyline, duloxetine or milnacipran) and/or membrane-stabilizing agents (gabapentin or pregabalin). […]
Second, the pain scores of another group of patients with insulin resistance and fibromyalgia, Group 2, who had been treated with […], a class of drugs that reduce insulin resistance by a mechanism different from metformin were analyzed. […]
Because peripheral neuropathies (including small fiber neuropathy) that are associated with insulin resistance may start at very early stages of pre-diabetes, there is a growing trend among experts to begin early pharmacological interventions to correct this abnormality, particularly when insulin resistance is associated with neuropathy or other risk factors. […] Pain scores were routinely recorded by the Numeric Pain Rating Scale (NPRS), at each clinical encounter. […]

[3] = in vivo; cited from earlier work

| SMILES | NNT (numbers needed to treat) [1] | change in pain scores (NPRS), in words ([2]; Group 2, 10 patients: 5 metformin alone, 5 PPD-4 inhibitor alone, no ST) | retention of the analgesic effect ([2]; long-term, refers to a Table 3 that is not given) | individuals intolerant to metformin [3] |
| --- | --- | --- | --- | --- |
| CNCC[C@H](Oc1cccc2ccccc12)c1cccs1 [duloxetine] | 6 |  |  |  |
| CN(C)CCC=C1c2ccccc2CCc2ccccc21 [amitriptyline] | 4 |  |  |  |
| CN(C)C(=N)N=C(N)N [metformin] |  | comparable reductions in pain scores; also recorded: this improvement was only partial | long-term retention of the analgesic effect | at least 20% |
